{
  "source": "patent US20240246905A1",
  "about": "(University of Leicester, priority 2021, published 2024)",
  "key": {"[1]": {"test_system": "MRSA 252 biofilms", "assay": "Biofilm prevention, crystal violet", "assay_type": "cell-based, S. aureus", "details": "50 μg/mL", "experimental": "The potential of the lead compounds to both inhibit S. aureus biofilm growth and to disrupt more established biofilms was next investigated. Since previous studies had determined each compounds MIC against planktonic MRSA bacteria, it was hypothesized that a compound concentration of 50 μg/mL (at or above the MIC of all lead compounds except 2) was a reasonable concentration to begin the study.\nPrevention: 100 μL of a mixture of TSB supplemented with 0.5% glucose and antibiotic (1:1) was added to individual wells in 96-well plate. The wells were then inoculated with […] an overnight culture of bacteria and incubated at 37° C. for 24 hours. Following the pre-determined length of time, the medium in each well was discarded, washed twice with PBS before 150 μL of a 1% crystal violet solution was added and the plate was left to incubate at room temperature for a further 30 minutes. Each well was then washed a further 4× with PBS before 200 μL 7% acetic acid was added. The absorbance of each well was then measured at OD595."}, "[2]": {"test_system": "S. aureus SH1000 cells", "assay": "Potassium leakage detection", "assay_type": "cell-based", "details": "60 minutes, MRSA cells", "experimental": "The potassium leakage of S. aureus SH1000 cells exposed to compounds was conducted as per previously published methods. Briefly, compounds were incubated with mid-exponential-phase S. aureus SH1000 cells in HEPES buffer (˜10^8 CFU/ml) for 60 minutes. Cells were then removed by centrifugation, and the supernatant was assayed for K^+ efflux by using a Perkin-Elmer 11001B atomic absorption instrument in flame emission mode (wavelength, 766.5 nm; slit, 0.7 nm high; air-acetylene flame). Prior to measurements, the instrument was calibrated using analytical grade potassium standards."}, "[3]": {"test_system": "MRSA 252", "assay": "MIC before and after cysteine addition", "assay_type": "cell-based, S. aureus", "details": "up to 24 hours", "from_the_text": "It is well known that compounds bearing an isocyanide group are usually highly reactive, capable of reacting with electrophiles, nucleophiles and radicals.^(30) As a result, it was important to identify any stability issues which might be encountered by the lead compounds, both in storage and in the presence of glutathione and cysteine. […] Another common feature of the lead compounds is the vinyl fragment. It was hypothesized that the presence of glutathione and cysteine found in eukaryotic cells could potentially interact with the electrophilic alkene group in the compounds, thus shutting down their antibiotic activity. To probe this potentially detrimental in vivo process, compound 39 was subjected to glutathione for up to 24 hours whilst compound 41 was added to cysteine for the same length of time."}, "[4]": {"test_system": "MRSA 252", "assay": "LIVE/DEAD assay (SYTO 9 / propidium iodide)", "assay_type": "cell-based, S. aureus", "details": "4×MIC", "experimental": "To attempt to further confirm whether the membrane was indeed targeted by compound 41, a LIVE/DEAD assay was performed, in which MRSA 252 was inoculated with two dyes: SYTO 9 and propidium iodide (PI). Cells with compromised membranes will stain fluorescent red whilst those cells with intact membranes will stain fluorescent green. […] Contrary to this, cells with no antibiotic present stained fluorescent green (FIG. 7).\nThe LIVE/DEAD BacLight™ bacterial viability kit was purchased from Thermo Fischer Scientific and the assay was performed per manufactures instructions. The kit provides two nucleic acid stains; SYTO-9 and propidium iodide (PI), which allows live bacteria with intact membranes to be distinguished from bacteria with compromised membranes. Single colonies of MRSA 252 were added to individual wells containing Melinex® films and 3 mL TSB and incubated at 37° C. for 18 hours with minimal agitation (70 rpm). The growth media was then exposed to the antibiotics at various concentrations and incubated for 10 hours. The medium was then discarded in each well, washed with PBS before 200 μL of a solution containing both nucleic acid stains was added (50 μL of each component in 10 mL PBS) and left to incubate in the dark for 15 minutes at room temperature. […]"}, "[5]": {"test_system": "S. aureus SH1000 cells", "assay": "DiSC3(5) membrane potential assay", "assay_type": "cell-based", "details": "16 μg/mL, 180 minutes", "experimental": "We next looked to further confirm the cell membrane as being the target site of action for our compounds, by undertaking a membrane depolarization assay using the voltage sensitive dye, 3,3′-dipropylthiacarbocyanine iodide (DiSC3(5)).\n[…] Cultures of SH1000 were grown to OD600 of 0.2 before being incubated further with 0.1 M KCl and 2 μM DiSC3(5) for 30 minutes at 37° C. […] Subsequently, the cells were centrifuged and 1 mL of supernatant mixed with 1 mL DMSO; the centrifuged pellet was lysed in DMSO for 10 minutes and added to equal volumes of HEPES and glucose buffer. Extracellular and intracellular fluorescence was measured on a LS 45 luminescence spectrometer (PerkinElmer) at an excitation and emission of 622 nm and 670 nm respectively. Consequently, the membrane potential was calculated using the Nernst equation and expressed as a percentage of the initial value."}, "[6]": {"test_system": "late-exponential phase MRSA 252", "assay": "Time-kill assay", "assay_type": "cell-based, S. aureus", "experimental": "Investigations into the precise mode of action of these compounds was next studies, with time-kill assays, resistance studies, live-dead stain and morphological analysis of bacteria exposed to the compounds providing an insight into the specific mode of action. Time-kill assays were used to evaluate whether the compounds were bacteriostatic or bactericidal.\nThe mode of inhibitory action of our novel class of compounds was determined by measuring the decrease in CFU over time. […] The pellets were re-suspended in TSB with the antibiotic added at 2× and 4×MIC and incubated at 37° C. Bacterial suspensions mixed with 1 M saline served as a control. […]"}, "[7]": {"test_system": "Galleria mellonella", "assay": "Systemic toxicity, Galleria mellonella survival", "details": "n = 10, injection of 500 μg/mL", "experimental": "Galleria mellonella wax worms purchased from www.livefoods.co.uk were inoculated with 10 μL of a series of dilutions of the antibiotics synthesised in-house. The antibiotic concentrations chosen for this study were the following: 1000 μg/mL, 500 μg/mL, 250 μg/mL, 125 μg/mL and 31.25 μg/mL. Each dilution was injected into 10 individual wax worms through their last pro-leg. The injected wax worms were stored at 25° C. for 5 days. The cytotoxicity was determined as the percentage survival rate of Galleria mellonella Wax worms after 5 days inoculation."}},
  "data": [
    {"compound": "[C-]#[N+]C=Cc1ccc(O)cc1", "note": "[Compound 2, 4-(2-Isocyanovinyl)phenol]", "values": [
      {"measurement": "prevention of MRSA 252 biofilm growth", "setting": "[1]", "value": "entirely prevented biofilm formation"}
    ]},
    {"compound": "[C-]#[N+]/C=C/c1ccc(NC(C)=O)cc1/C=C/c1ccccc1", "note": "[Compound 41, N-(4-((E)-2-Isocyanovinyl)-3-((E)-styryl)phenyl)acetamide]", "values": [
      {"measurement": "dissipation of cellular K+ ions", "setting": "[2]", "value": 50, "unit": "%"},
      {"measurement": "MIC in the presence of cysteine", "setting": "[3]", "value": "remained unaffected"},
      {"measurement": "membrane integrity (LIVE/DEAD stain)", "setting": "[4]", "value": "significant membrane damage"},
      {"measurement": "reduction in the proton motive force", "setting": "[5]", "value": 70, "unit": "%"},
      {"measurement": "reduction in bacterial density", "setting": "[6]; 20 hours exposure, 2×MIC, MRSA 252 in TSB", "value": 4, "unit": "log"},
      {"measurement": "bacteriostatic or bactericidal", "setting": "[6]; late-exponential phase MRSA 252", "value": "bactericidal activity"}
    ]},
    {"compound": "(2-Isocyanovinyl)-4-acetaamido benzene [Compound 22]", "values": [
      {"measurement": "% survival after 5 days", "setting": "[7]", "value": 70, "unit": "%"}
    ]}
  ]
}
